Results published in patent US11214803B2, “Modulators of YAP1 expression” (Ionis Pharmaceuticals, Inc., priority 2019, dated 2022).
Strand notation (5' to 3'): a small letter for the sugar, then the base; units joined by * are phosphorothioate-linked, units joined directly phosphodiester-linked; [ ] holds rarer units or linkages, { } end groups; capitals alone tell only the bases. k = constrained ethyl (cEt); [5mC] = 5-methylcytosine; d = 2'-deoxy (DNA)

The substances below were run on Yap1 mRNA (assay: Antisense inhibition of human Yap1 in A-431 cells by cEt gapmers, single dose (Example 1, RTS4814)). Details: A-431 cells, 5,000 cells per well, free uptake, 2,000 nM modified oligonucleotide, approx. 48 hours, RTS4814, normalized to RIBOGREEN; Table 3.
Format: cell-based
Procedure, shortened: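 Free uptake of 2,000 nM 3-10-3 cEt gapmer (16-mer, full phosphorothioate, 5-methylcytosines) in A-431 cells for ~48 h. Yap1 mRNA quantified by qRT-PCR with set RTS4814, normalized to total RNA (RiboGreen), and expressed as % of untreated control; asterisked values target the amplicon region.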

Substance | YAP1 (% UTC)
715615 (antisense k[5mC]*kG*kG*dA*dT*dA*dA*dA*dA*dA*dT*dT*dA*k[5mC]*kT*kT) [Compound 715615] | 94
715558 (k[5mC]*kA*kG*dG*dA*dA*dG*dT*dT*dA*dT*dT*d[5mC]*kA*kG*k[5mC]; antisense) [Compound 715558] | 37
715621 (antisense kT*kA*kA*dA*dA*dA*dA*dT*dA*dA*dG*dA*d[5mC]*kG*kG*kA) [Compound 715621] | 106
715432 (k[5mC]*kT*k[5mC]*d[5mC]*dA*dT*d[5mC]*d[5mC]*dT*dG*dA*dG*dT*k[5mC]*kA*kT; antisense) [Compound 715432] | 65
715471 (antisense kT*kA*kT*d[5mC]*dT*dA*dG*d[5mC]*dT*dT*dG*dG*dT*kG*kG*k[5mC]) [Compound 715471] | 36
715600 (antisense kA*kA*kT*dT*d[5mC]*d[5mC]*d[5mC]*dA*dA*dG*d[5mC]*dT*dA*k[5mC]*k[5mC]*k[5mC]) [Compound 715600] | 82
715450 (antisense kT*kT*kG*dT*dT*d[5mC]*dT*d[5mC]*dA*dA*dT*dT*d[5mC]*k[5mC]*kT*kG) [Compound 715450] | 53
715486 (antisense kT*kA*k[5mC]*dT*dT*d[5mC]*dA*dT*dA*dG*d[5mC]*dT*dT*kA*kT*kA) [Compound 715486] | 27
715603 (antisense kG*k[5mC]*kA*d[5mC]*dA*dG*dA*dA*dT*dT*d[5mC]*d[5mC]*d[5mC]*kA*kA*kG) [Compound 715603] | 106
715552 (kA*kA*kA*dT*dA*dG*dG*dA*dA*dG*dT*dT*dG*kT*kT*kG; antisense) [Compound 715552] | 86
715624 (antisense kT*kG*k[5mC]*d[5mC]*dT*dA*dA*dG*dA*dG*dT*dA*dA*kA*kA*kA) [Compound 715624] | 123
715519 (kT*kT*k[5mC]*d[5mC]*dA*d[5mC]*dT*d[5mC]*dA*dA*dG*dT*dT*kA*k[5mC]*kA; antisense) [Compound 715519] | 96
715591 (k[5mC]*kT*kT*dT*dG*dG*d[5mC]*dA*dG*dA*dG*dA*dT*kA*kA*kA; antisense) [Compound 715591] | 41
715495 (antisense kA*k[5mC]*kA*dG*dA*dG*dG*dT*dG*d[5mC]*dT*dA*dG*k[5mC]*kT*kG) [Compound 715495] | 80
715531 (kA*k[5mC]*kA*dA*d[5mC]*d[5mC]*dT*dG*dG*dT*dT*dT*dG*kT*kT*kT; antisense) [Compound 715531] | 94
715444 (antisense kT*k[5mC]*k[5mC]*d[5mC]*dT*dG*dT*dG*dG*dG*d[5mC]*dT*d[5mC]*kT*kG*kG) [Compound 715444] | 84

Same assay, conditions: Table 1; A-431 cells, free uptake, 2,000 nM, approximately 48 hours, RTS4814; Yap1 mRNA relative to untreated control cells

Substance | YAP1 (% UTC)
715403 (kG*kA*kA*dG*dG*dA*dG*dT*d[5mC]*dG*dG*dG*d[5mC]*kA*kG*k[5mC]; antisense) [Compound 715403] | 72
715412 (k[5mC]*kT*kG*d[5mC]*dA*dT*d[5mC]*dA*dG*dT*dA*d[5mC]*dT*kG*kG*k[5mC]; antisense) [Compound 715412] | 66
715619 (antisense kA*kA*kA*dT*dA*dA*dG*dA*d[5mC]*dG*dG*dA*dT*kA*kA*kA) [Compound 715619] | 114
715490 (antisense k[5mC]*k[5mC]*kA*dA*d[5mC]*dT*dA*dT*dT*dA*d[5mC]*dT*dT*k[5mC]*kA*kT) [Compound 715490] | 38
715583 (kG*kG*kG*d[5mC]*d[5mC]*dA*d[5mC]*dA*dA*dA*dA*dT*dA*kA*kA*kA; antisense) [Compound 715583] | 164
715511 (antisense kT*k[5mC]*k[5mC]*dT*dG*dA*d[5mC]*dA*dT*dT*dT*dT*dG*kG*kA*kG) [Compound 715511] | 107
715445 (antisense k[5mC]*kA*kT*d[5mC]*d[5mC]*dT*dG*d[5mC]*dT*d[5mC]*d[5mC]*dA*dG*kT*kG*kT) [Compound 715445] | 87
715610 (antisense kG*kG*k[5mC]*dT*dG*dT*dG*dT*dA*dG*dG*d[5mC]*dT*kG*kA*k[5mC]) [Compound 715610] | 87
715586 (kA*kA*kA*dA*dG*dG*dT*d[5mC]*dT*dG*dG*dA*dA*k[5mC]*kA*kG; antisense) [Compound 715586] | 53
715556 (kA*kA*kG*dT*dT*dA*dT*dT*d[5mC]*dA*dG*d[5mC]*dA*kG*k[5mC]*kT; antisense) [Compound 715556] | 63
715466 (antisense k[5mC]*kA*kA*dG*dG*dT*d[5mC]*d[5mC]*dA*d[5mC]*dA*dT*dT*kT*kG*kT) [Compound 715466] | 83
715463 (antisense k[5mC]*kT*kG*dT*dA*dG*d[5mC]*dT*dG*d[5mC]*dT*d[5mC]*dA*kT*kG*k[5mC]) [Compound 715463] | 73
715499 (antisense kT*kA*kT*dG*dA*dA*d[5mC]*d[5mC]*d[5mC]*dT*dT*dG*dA*kA*kA*kA) [Compound 715499] | 126
715547 (kG*kT*kT*dG*dA*d[5mC]*d[5mC]*dA*dA*d[5mC]*dT*dA*d[5mC]*kT*kT*kG; antisense) [Compound 715547] | 98
715523 (kA*kT*k[5mC]*dA*dG*dT*dA*d[5mC]*dT*dG*dG*d[5mC]*d[5mC]*kT*kA*kT; antisense) [Compound 715523] | 32
715565 (kG*kG*kA*dT*dA*dA*dA*dT*dG*dA*dA*dT*dT*kA*kT*kA; antisense) [Compound 715565] | 115

Same assay, conditions: Table 2; A-431 cells, free uptake, 2,000 nM, approximately 48 hours, RTS4814; Yap1 mRNA relative to untreated control cells

Substance | YAP1 (% UTC)
715479 (antisense kA*kA*kA*d[5mC]*d[5mC]*dA*dT*dT*dA*dT*dT*dA*d[5mC]*kT*k[5mC]*k[5mC]) [Compound 715479] | 38
715563 (kA*kG*k[5mC]*dA*d[5mC]*dA*d[5mC]*dA*dA*d[5mC]*dT*d[5mC]*dA*kG*kA*k[5mC]; antisense) [Compound 715563] | 86
715494 (antisense kG*kA*kG*dG*dT*dG*d[5mC]*dT*dA*dG*d[5mC]*dT*dG*kG*kT*kG) [Compound 715494] | 46
715560 (k[5mC]*k[5mC]*k[5mC]*dT*dT*dT*dA*d[5mC]*dA*dA*dA*dA*dA*kT*kA*kG; antisense) [Compound 715560] | 98
715632 (antisense kA*kT*k[5mC]*d[5mC]*dA*dA*dT*dT*dA*dT*dG*dT*d[5mC]*k[5mC]*k[5mC]*kA) [Compound 715632] | 109
715521 (kT*k[5mC]*kT*dT*d[5mC]*dT*dT*dT*d[5mC]*d[5mC]*dA*d[5mC]*dT*k[5mC]*kA*kA; antisense) [Compound 715521] | 72
715455 (antisense kT*kG*kA*dT*dA*dG*dG*dT*dG*d[5mC]*d[5mC]*dA*d[5mC]*kT*kG*kT) [Compound 715455] | 65
715446 (antisense kA*kT*kT*d[5mC]*d[5mC]*dT*dG*dA*dG*dA*d[5mC]*dA*dT*k[5mC]*k[5mC]*k[5mC]) [Compound 715446] | 81
715443 (antisense kT*kT*k[5mC]*dA*d[5mC]*dT*dG*dG*dA*dG*d[5mC]*dA*d[5mC]*kT*k[5mC]*kT) [Compound 715443] | 40
715590 (kT*kT*kG*dG*d[5mC]*dA*dG*dA*dG*dA*dT*dA*dA*kA*kA*k[5mC]; antisense) [Compound 715590] | 84
715536 (kG*kG*k[5mC]*dT*dA*dT*dT*dA*dA*dG*d[5mC]*dT*dG*kT*kT*kT; antisense) [Compound 715536] | 137
715527 (kT*k[5mC]*kA*d[5mC]*dT*dT*dA*d[5mC]*dT*dT*dT*dA*dA*kG*kA*kA; antisense) [Compound 715527] | 111
715545 (kA*k[5mC]*k[5mC]*dA*dA*d[5mC]*dT*dA*d[5mC]*dT*dT*dG*dA*kA*kG*kA; antisense) [Compound 715545] | 87
715410 (kA*kT*k[5mC]*dA*dG*dT*dA*d[5mC]*dT*dG*dG*d[5mC]*d[5mC]*kT*kG*kT; antisense) [Compound 715410] | 61
715578 (kT*kG*kG*d[5mC]*dA*dT*dT*d[5mC]*dA*d[5mC]*dA*dG*dA*kG*kT*kT; antisense) [Compound 715578] | 50
715425 (kG*kT*k[5mC]*d[5mC]*dT*dG*d[5mC]*d[5mC]*dA*dT*dG*dT*dT*kG*kT*kT; antisense) [Compound 715425] | 98
715440 (antisense k[5mC]*kT*kG*dG*dT*dT*d[5mC]*dA*dT*dG*dG*d[5mC]*dA*kA*kA*kA) [Compound 715440] | 85
715464 (antisense k[5mC]*k[5mC]*kA*d[5mC]*dA*dT*dT*dT*dG*dT*d[5mC]*d[5mC]*d[5mC]*kA*kG*kG) [Compound 715464] | 89
715626 (antisense kA*k[5mC]*k[5mC]*dT*dG*dA*d[5mC]*dA*dT*dT*dT*dT*dG*kG*kA*kG) [Compound 715626] | 64
715401 (kG*kG*kT*d[5mC]*dT*d[5mC]*d[5mC]*dG*dA*dG*dT*d[5mC]*d[5mC]*k[5mC]*k[5mC]*kG; antisense) [Compound 715401] | 84
715416 (k[5mC]*kT*k[5mC]*dG*dA*dA*d[5mC]*dA*dT*dG*d[5mC]*dT*dG*kT*kG*kG; antisense) [Compound 715416] | 53
